Results from patent publication US9981906B2, “Trans-clomiphene metabolites and uses thereof” (Repros Therapeutics Inc., priority 2011, dated 2018).

What was measured:
[1] = tested on: cryopreserved hepatocytes from Beagle dog; assay: Metabolite profile of Androxal in cryopreserved Beagle dog hepatocytes; assay type: in vitro ADME; conditions: LC/MS
Procedure: (§1) A study was conducted to determine the metabolic profile of Androxal® in cryopreserved hepatocytes from Sprague-Dawley rat, Beagle dog, cynomolgus monkey, and human. The liver is the main site of drug metabolism and the full complement of hepatic drug metabolizing enzymes (including liver enzymes of the CYP P450 family) are maintained within the intact cell. Isolated liver hepatocytes constitute a physiologically relevant experimental model for the evaluation of liver-related drug properties such as metabolism. Cyropreservation of the hepatocytes greatly enhances their availability for studies.
(§2) Primary hepatocytes isolated from several donors for each animal species and five human donors were pooled according to species and cryopreserved. The hepatocytes were thawed, subjected to Percoll density gradient centrifugation to remove debris and counted to determine yield. Viability was measured using Trypan blue exclusion. The hepatocytes were diluted with CYP assay buffer (Krebs-Hensleit Buffer) to prepare a 2× cell suspension of 2.0×10^6 viable cells/ml. Aliquots of the 2× hepatocyte suspension (0.5 ml containing 1.0×10^6 cells) were transferred to appropriate wells for a final 1× cell density of 1.0×10^6 cells/well. All incubations were conducted at 37±1° C., 95% air/5% CO2, and saturating humidity in 12-well uncoated culture plates. […] The cultures were incubated for 1 and 4 hours. The sample size was N=2 replicates.
(§3) Matrix control samples were included as a source of background matrix components to aid in metabolite identification. Equal volumes of 2× hepatocyte suspension and CYP assay buffer without Androxal® were combined and incubated for 4 hours.
Chemical degradation control samples were included to evaluate the possibility of chemical degradation of Androxal® in the absence of cells. […]
(§4) The incubations were terminated as follows: Metabolic positive control incubations were terminated by adding an equal volume of methanol. All other incubations were terminated by placing the plates on ice. The contents of each well were mixed thoroughly and divided into five cryovials. An equal volume of organic solvent was added to one cryovial. The samples were either immediately analyzed or stored in cryovials at −70°±10 C until analysis.
(§5) All samples were analyzed by reverse-phase HPLC. A UV profile of the samples was obtained followed by liquid chromatography-mass spectrometry (LC/MS) analysis using a Micromass® Q-Tof-2 mass spectrometer capable of conducting accurate mass measurement. Preliminary metabolite identification was aided by the use of Metabolynx® software.
(§6) The relative amounts of Androxal and its metabolites after 1 and 4 hour incubations are reported below at Tables 1-4.

[2] = tested on: cryopreserved hepatocytes from cynomolgus monkey; assay: Metabolite profile of Androxal in cryopreserved cynomolgus monkey hepatocytes; assay type: in vitro ADME; conditions: LC/MS
Procedure: as §1, §2, §3
(§7) Chemical degradation control samples were included to evaluate the possibility of chemical degradation of Androxal® in the absence of cells. Equal volumes of 2× Androxal® dosing solution (6 and 60 μM) and CYP buffer were combined and incubated for 1 and 4 hours.
as §4, §5, §6

[3] = tested on: cryopreserved hepatocytes from Sprague-Dawley rat; assay: Metabolite profile of Androxal in cryopreserved Sprague-Dawley rat hepatocytes; assay type: in vitro ADME; conditions: LC/MS
Procedure: as §1, §2, §3, §7, §4, §5, §6

[4] = tested on: cryopreserved hepatocytes from human; assay: Metabolite profile of Androxal in cryopreserved human hepatocytes; assay type: in vitro ADME; conditions: LC/MS
Procedure: as §1, §2, §3, §7, §4, §5, §6

[5] = following a single dose; cited from earlier work
[6] = incubations containing 3 μM Androxal for 1 hour
[7] = incubations containing 3 μM Androxal for 4 hours
[8] = incubations containing 30 μM Androxal for 4 hours
[9] = incubations containing 30 mM Androxal for 1 hour

SMILES	relative amount, Beagle dog [1, 6]	relative amount, Beagle dog [1, 7]	relative amount, Beagle dog [1, 8]	relative amount, Beagle dog [1, 9]	relative amount, Cyno. monkey [2, 6]	relative amount, Cyno. monkey [2, 7]	relative amount, Cyno. monkey [2, 8]	relative amount, Cyno. monkey [2, 9]	relative amount, SD Rat [3, 6]	relative amount, SD Rat [3, 7]	relative amount, SD Rat [3, 8]	relative amount, SD Rat [3, 9]	relative amount, Human [4, 6]	relative amount, Human [4, 7]	relative amount, Human [4, 8]	relative amount, Human [4, 9]	relative amount, Beagle dog ([1]; incubations containing 30 μM Androxal for 4 hours, retention time 22.7)	relative amount, Beagle dog ([1]; incubations containing 30 μM Androxal for 4 hours, retention time 22.95)	residual blood levels [5]
CCN(CC)CCOc1ccc(/C(=C(\Cl)c2ccccc2)c2ccccc2)cc1 [C26H28ClNO, trans-clomiphene]	148.9	103.2	4989.3	6227.3	279.1	84.2	2828.5	3166.4	240.0	182.5	3123.3	3166.8	625.8	285.4	4012.5	4297.8	–	–	–
CCN(CC)CCOc1ccc(C(c2ccc(O)c(O)c2)C(Cl)c2ccccc2)cc1 (centres unmarked) [C26H30NO3Cl]	–	–	–	–	–	–	–	–	–	–	–	–	–	–	–	–	65.9	43.7	–
CCNCCOc1ccc(/C(=C(/Cl)c2ccccc2)c2ccccc2)cc1 [C24H24NOCl, N-desethyl-trans-clomiphene]	25.9	18.6	723.5	–	22.3	–	2175.0	1029.8	–	–	673.8	336.6	48.3	43.4	1262.4	699.8	–	–	–
CCN(CC)CCOc1ccc(/C(=C(/Cl)c2ccccc2)c2ccc(O)cc2)cc1 [C26H28NO2Cl, 4-hydroxy-trans-clomiphene]	218.8	103.4	–	1535.2	239.4	43.4	–	–	100.9	31.1	–	992.7	240.3	247.0	–	–	–	–	–
CCN(CC)CCOc1ccc(/C(=C(/Cl)c2ccccc2)c2ccccc2)cc1 (single isomer, unassigned) [cis isomer, cis-clomiphene]	–	–	–	–	–	–	–	–	–	–	–	–	–	–	–	–	–	–	in excess of one month
